The term Kd denotes the concentration at which binding is half-saturated.

In test [1] the test system is PRPF40A N-ext-WW12. Briefly: NMR titration (1H-15N and 1H-13C HSQC) of N-ext-WW12 with SF1 peptides. It counts as binding, human. Conditions: NMR titration of N-ext-WW12, ratios 1:1 up to 1:4. As for the experimental part: NMR samples were prepared at concentrations ranging 100–1000 μM in buffer containing 20 mM sodium phosphate pH 6.5, 100 mM NaCl, 1 mM DTT, and 10% or 100% D2O, and measured at 25 °C (except stated otherwise) in 900-, 800-, 600- and 500-MHz Bruker Avance III NMR spectrometers equipped with cryogenic triple resonance gradient probes. Topspin 4.1.0 (Bruker) software was used for NMR data acquisition. Spectra were processed with NMRpipe 8.9[76] and analyzed using ccpnNMR Analysis 2.5 software.
^15N-labeled PRPF40A proteins (WW1, WW2, WW12, and N-extWW12) at around 100 μM concentration were titrated with increasing concentration ratios of polyproline or SF1 peptides (GB1 tagged) until reaching saturation, when possible; ^1H-^15N HSQC experiments and in some cases ^1H-^13C HSQC experiments (using double-labeled PRPF40A proteins) were acquired at each titration point. The chemical shift perturbation (CSP) was weighted using the Eqs. (1) and (2)[89].1 CSP(HN)=0.5⋅ΔδH2+0.14⋅ΔδN2 2 CSP(HC)=0.5⋅ΔδH2+0.3⋅ΔδC2

Test [2] has as its target T1, PRPF40A WW12 (tandem WW domains, residues 141–236) (Homo sapiens, UniProt O75400).
T1 construct: WW12 141–236, WW12long 141–248, and N-ext-WW12 56–236; 6xHis-TEV site (N, cleaved yes); made in house; host or cells: Escherichia coli BL21(DE3)
As to the kind of experiment: ITC of PRPF40A WW12 with GB1-tagged proline-rich peptides and constructs. It counts as binding. From the text:
PRPF40A isoform 1 sequences (N-ter 1–310, WW12short 141–223, WW12 141–236, WW12long 141–248, and N-ext-WW12 56–236) were amplified from a purchased DNA fragment (IDT) and cloned using NcoI and KpnI restriction sites into a pETM11 vector encoding 6xHis and TEV cleavage site as a N-terminal tag. SF1 (Pro A 410–468, Pro B 468–539, Pro C 539–594, Pro D 594–639, Pro BC 468–594, Pro CD 539–639, Pro BCD 468–639 and Pro ABCD 410–639) and SF3A1 (Middle Pro 364–413 and C-ter Pro 552–683) constructs were prepared in a similar manner using a pET24 vector with a 6xHis, GB1 and TEV cleavage site as N-terminal fusion cassette. 16-mer SF1 constructs (Table 1) and polyproline peptides (P6, P8, P10, P13, P16, P19, P22, P25, and P29) were cloned in the same pET24 vector with GB1 tag by direct ligation of purchased oligonucleotides (Eurofins). All peptide sequences contained N and C-terminal common residues to avoid boundary effects on binding: TEVsite-GAMSGS-peptide-SGSN. Mutants of PRPF40A WW12 and N-ext-WW12 constructs were prepared by site-directed mutagenesis. The truncated version of PRPF40A WW12 (141-217) was a gift from Dr. María Macías (IRB, Spain). All used oligonucleotides were purchased from Eurofins Genomics and are shown in Supplementary Table 6.
Resuspended cell pellets in 20 mM Tris pH 8.0, 500 mM NaCl, 10 mM imidazole, 0.5 mM TCEP, and protease inhibitors mix (SERVA) were lysed by cell disruption in a French press. Clear lysates, after centrifugation (at 18,000 g) and filtering, were loaded into Ni-NTA resin. The resin was then washed with 20 mM imidazole containing buffer, and the desired protein was eluted with 500 mM imidazole. PRPF40A constructs were then subjected to TEV protease treatment (homemade at a final concentration of ≈50 μg/ml), dialyzed overnight at 4 °C against an imidazole-free buffer, and then loaded again to Ni-NTA resin; desired digested proteins were obtained in the flow-through and wash fractions while uncleaved protein, TEV protease, and impurities remained bound to the resin. Cleaved PRPF40A proteins and GB1-tagged SF1, SF3A1, and polyproline constructs were further purified by size-exclusion chromatography on a HiLoad 16/60 Superdex 75 column (GE Healthcare) equilibrated with 20 mM sodium phosphate, pH 6.5, 100 mM NaCl and 1 mM DTT buffer. For the purification of PRPF40A WW12 in complex with SF1 peptide, cell pellets of recombinant expression for both proteins were mixed and processed together following the Ni-NTA—TEV digestion—reverse Ni-NTA—SEC-75 protocol; where the complex remained bound in a 1:1 stoichiometry throughout the whole purification (corroborated by NMR). Molecular weight of each sample was confirmed by mass spectrometry, purity was checked by PAGE-SDS, and protein concentrations were determined from the aromatic contribution to the UV absorbance spectra at 280 nm.
Experiments were conducted on a MicroCAl PEAQ-ITC (Malvern Instruments, UK) at 25 °C in 20 mM sodium phosphate pH 6.5 and 100 mM NaCl. PRPF40A was titrated into N-terminal GB1 tagged SF1 or polyproline constructs and vice versa with similar results. Protein concentrations in the cell were around 20–40 μM, while in the syringe ranged between 200 and 500 μM. Experiments were performed at least in duplicate with injections of 1.5 μL (0.4 μL for first point) separated by 150 s delays to recover thermal power baseline and continuous stirring in the cell (750 rpm) for correct mixing. The reference cell was filled with water in all experiments. Data were processed by removing the blank experiment (using digested GB1 fusion protein) and adjusted to one-site binding model with Malvern PEAQ-ITC Analysis software (Malvern Instruments, UK).

Like-named read-outs stand apart in the source and are kept apart here.

T1 sequence (O75400 141-236): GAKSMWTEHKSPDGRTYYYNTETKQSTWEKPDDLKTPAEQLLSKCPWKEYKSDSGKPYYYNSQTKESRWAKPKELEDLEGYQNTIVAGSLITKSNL

Consider PPLPPGAPPPPPPPPP [SF1WWbs], for which the “displacement of the intramolecular N-terminal motifs (methyl signals Val 80, Val 129)” value in test [1] is on record as “able to displace the intramolecular interaction”. Moreover, in test [2] (ITC as E1, peptide in the cell, WW tandem in the syringe, N >1 = more than one WW tandem per peptide), the “N (sites)” value is recorded as 1.00 ± 0.03 sites. Moreover, the “DH” value in test [2] (ITC binding enthalpy, as E1) was -81.8 ± 1.7 kJ/mol. Further, in test [2] (ITC, 25 °C, 20 mM sodium phosphate pH 6.5, 100 mM NaCl, GB1-tagged polyproline or SF1 16-mer peptide in the cell, WW tandem in the syringe, one-site model, apparent Kd, average of at least duplicates), the “Kd (µM)” value is given as “low micromolar range”. For the same sequence, the Kd in test [2] (ITC, SF1 peptides, individual value 1 (replicate 1), read-out: Kd Values with WW12, individual value) worked out at 1.29 µM; in test [2] (ITC, SF1 peptides, individual value 2 (replicate 2), read-out: Kd Values with WW12, individual value), 1.24 µM; in test [2] (ITC, SF1 peptides, individual value 3 (replicate 3), read-out: Kd Values with WW12, individual value), 1.62 µM; in test [2] (ITC, SF1 peptides, individual value 5 (replicate 5), read-out: Kd Values with WW12, individual value), 1.29 µM; in test [2] (ITC, mean over the peptides of the classification group, read-out: Kd Values with WW12, averaged group), 1.4 µM.

The record behind these values is article PMC11079029, “Intramolecular autoinhibition regulates the selectivity of PRPF40A tandem WW domains for proline-rich motifs” (Nature Communications, 2024).
